The values below come from ChEMBL document CHEMBL3286395, “Tabercarpamines A-J, apoptosis-inducing indole alkaloids from the leaves of Tabernaemontana corymbosa” (J Nat Prod, 2014).

Test [1] relates to HepG2. The test is described as follows: Induction of apoptosis in human HepG2 cells assessed as viable cells at 12.50 uM after 48 hrs using annexin V-FITC/propidium iodide staining by flow cytometry (reference value: 86.80%). The format is functional. Particulars: HepG2, 48 h, read-out: Activity. (In flow cytometry, cells or beads pass a laser one at a time.)
The subject of test [2] is HepG2. Kind of test: Induction of apoptosis in human HepG2 cells assessed as viable cells at 25 uM after 48 hrs using annexin V-FITC/propidium iodide staining by flow cytometry (reference value: 86.80%). Particulars: HepG2, 48 h, read-out: Activity. It is filed as functional.
For test [3], the system named is HepG2. Kind of test: Induction of apoptosis in human HepG2 cells assessed as early stage apoptotic cells at 25 uM after 48 hrs using annexin V-FITC/propidium iodide staining by flow cytometry (reference value: 10.15%). It is filed as functional.
The subject of test [4] is HepG2. The test is described as follows: Cytotoxicity against human HepG2 cells assessed as decrease in cell viability after 48 hrs by MTT assay. It is filed as functional, cell-based. As to conditions: HepG2, 48 h.
In test [5] the test system is HepG2. The test is described as follows: Induction of apoptosis in human HepG2 cells assessed as viable cells at 6.25 uM after 48 hrs using annexin V-FITC/propidium iodide staining by flow cytometry (reference value: 86.80%). It is filed as functional. Particulars: HepG2, 48 h, read-out: Activity.
The next test deals with SMMC-7721. The test is described as follows: Cytotoxicity against human SMMC7721 cells assessed as decrease in cell viability after 48 hrs by MTT assay. It is filed as functional, cell-based. As to conditions: SMMC-7721, 48 h. (Tetrazolium assays rely on reduction of a dye to a coloured formazan, in cell work by metabolically active cells.)
Another test relates to MCF7. Kind of test: Cytotoxicity against human MCF7 cells assessed as decrease in cell viability after 48 hrs by MTT assay. Particulars: MCF7, 48 h. It is filed as functional, cell-based.
In test [6] the test system is HepG2. The test is described as follows: Induction of apoptosis in human HepG2 cells assessed as necrotic cells at 25 uM after 48 hrs using annexin V-FITC/propidium iodide staining by flow cytometry (reference value: 2.39%). The format is functional.
Test [7] concerns HepG2. The test is described as follows: Induction of apoptosis in human HepG2 cells assessed as late stage apoptotic cells at 12.50 uM after 48 hrs using annexin V-FITC/propidium iodide staining by flow cytometry (reference value: 0.65%). It is filed as functional.
The subject of test [8] is HepG2. The test is described as follows: Induction of apoptosis in human HepG2 cells assessed as early stage apoptotic cells at 12.50 uM after 48 hrs using annexin V-FITC/propidium iodide staining by flow cytometry (reference value: 10.15%). It is filed as functional.
In test [9] the test system is HepG2. The test is described as follows: Induction of apoptosis in human HepG2 cells assessed as necrotic cells at 6.25 uM after 48 hrs using annexin V-FITC/propidium iodide staining by flow cytometry (reference value: 2.39%). The format is functional.
For test [10], the system named is HepG2. The test is described as follows: Induction of apoptosis in human HepG2 cells assessed as apoptotic rate at 25 uM after 48 hrs using annexin V-FITC/propidium iodide staining by flow cytometry (reference value: 10.80%). It is filed as functional.
Test [11] has as its system HepG2. The test is described as follows: Induction of apoptosis in human HepG2 cells assessed as apoptotic rate at 6.25 uM after 48 hrs using annexin V-FITC/propidium iodide staining by flow cytometry (reference value: 10.80%). It is filed as functional.
Test [12] has as its system HepG2. Kind of test: Induction of apoptosis in human HepG2 cells assessed as necrotic cells at 12.50 uM after 48 hrs using annexin V-FITC/propidium iodide staining by flow cytometry (reference value: 2.39%). The format is functional.
The subject of test [13] is HepG2. Kind of test: Induction of apoptosis in human HepG2 cells assessed as late stage apoptotic cells at 25 uM after 48 hrs using annexin V-FITC/propidium iodide staining by flow cytometry (reference value: 0.65%). It is filed as functional.
Test [14] relates to HepG2. Kind of test: Induction of apoptosis in human HepG2 cells assessed as early stage apoptotic cells at 6.25 uM after 48 hrs using annexin V-FITC/propidium iodide staining by flow cytometry (reference value: 10.15%). It is filed as functional.
In test [15] the test system is HepG2. The test is described as follows: Induction of apoptosis in human HepG2 cells assessed as apoptotic rate at 12.50 uM after 48 hrs using annexin V-FITC/propidium iodide staining by flow cytometry (reference value: 10.80%). It is filed as functional.
The test system of test [16] is HepG2. The test is described as follows: Induction of apoptosis in human HepG2 cells assessed as late stage apoptotic cells at 6.25 uM after 48 hrs using annexin V-FITC/propidium iodide staining by flow cytometry (reference value: 0.65%). The format is functional.

Turning to `C/C=C1/CN(C)[C@H]2Cc3c([nH]c4ccccc34)[C@H](c3cc4c5c6n(c4cc3OC)C[C@H]3C[C@@H](CC)[C@@H](NCC5)[C@@]6(C(=O)OC)C3)C[C@H]1[C@]2(CO)C(=O)OC`, the viability at 12.5 µM with HepG2 [1] worked out at 72.4%. The viability at 25 µM in the test with HepG2 [2] was 33.9%. Moreover, the Activity with HepG2 [3] was found to be 19.54%; in the test with HepG2 [6], 15.59%; with HepG2 [7], 8.47%; in the test on HepG2 [8], 11.3%; in the test with HepG2 [9] it was 3.17%; in the test on HepG2 [10], 50.51%. Further, the Activity amounted to 11.82% in the test on HepG2 [11]; 7.85% with HepG2 [12]; 30.97% with HepG2 [13]; 10.19% with HepG2 [14]; 19.77% with HepG2 [15]; 1.63% in the test on HepG2 [16]. The IC50 in the test with HepG2 [4] was found to be 3.31 µM; in the test on SMMC-7721 it was 6.76 µM; in the test with MCF7, 8.54 µM. Besides, in the test on HepG2 [5], the viability at 6.25 µM is 85%.
Regarding `C/C=C1/CN(C)[C@H]2Cc3c([nH]c4ccccc34)[C@H](c3cc4c(cc3OC)c3c5n4C[C@H]4C[C@@H](CC)[C@@H](NCC3)[C@@]5(C(=O)OC)C4)C[C@H]1[C@]2(CO)C(=O)OC`, the IC50 amounted to 11.3 µM in the test with HepG2 [4], 15 µM in the test with SMMC-7721 and 11 µM with MCF7.
As for `CC[C@]1(C(=O)O)C[C@@H](C(=O)OC)C2=Nc3cc(OC)ccc3[C@@]23CCN(CCO)[C@@H]13`, the IC50 in the test with HepG2 [4], with SMMC-7721 and with MCF7 was more than 100 µM throughout.
For the molecule `CC[C@]1(C(=O)O)C[C@@H](C(=O)OC)C2=Nc3cc(OC)ccc3[C@@]23CCN(CCO)[C@H]13`, the IC50 with HepG2 [4], in the test on SMMC-7721 and in the test on MCF7 was more than 100 µM throughout.
With `CC[C@@]12C[C@@H](C(=O)OC)C3=Nc4cc(OC)ccc4[C@@]34CCN(CCOC1=O)[C@@H]24`, the IC50 with HepG2 [4], with SMMC-7721 and with MCF7 was more than 100 µM in each case.
Consider `CC[C@@]12C[C@@H](C(=O)OC)C3=Nc4cc(OC)ccc4[C@@]34CCN(CCOC1=O)[C@H]24`, for which the IC50 in the test with HepG2 [4], with SMMC-7721 and in the test on MCF7 was more than 100 µM each time.
In the case of `CC[C@H]1C[C@@H]2Cn3c4c(c5ccc(OC)cc53)CCN[C@H]1[C@@]4(C(=O)OC)C2`, the IC50 with HepG2 [4], in the test on SMMC-7721 and in the test on MCF7 was more than 100 µM in each case.
For the molecule `COC(=O)[C@@]12C[C@@H]3C[C@H]([C@H](C)O)[C@H]1NCCc1c2n(c2cc(OC)ccc12)C3`, the IC50 in the test on HepG2 [4], in the test on SMMC-7721 and in the test on MCF7 was more than 100 µM in each case.
As for `CC[C@H]1C[C@H]2C[C@@]3(C(=O)OC)c4c(c5ccc(OC)cc5n4C2=O)CCN[C@H]13`, the IC50 in the test on HepG2 [4], in the test with SMMC-7721 and in the test on MCF7 was more than 100 µM in each case.
As to `COC(=O)[C@@]12C[C@@H]3C[C@H]([C@H](C)O)[C@H]1NCCc1c2n(c2ccccc12)C3`, the IC50 with HepG2 [4], in the test on SMMC-7721 and in the test on MCF7 was more than 100 µM each time.
As to `C/C=C1/CN(C)[C@H]2Cc3c([nH]c4ccccc34)[C@H](c3c(OC)ccc4c5c([nH]c34)[C@@]3(C(=O)OC)C[C@H]4C[C@H](CC)[C@@H]3N(CC5)C4)C[C@H]1[C@]2(CO)C(=O)OC`, the results for the IC50 with HepG2 [4], in the test with SMMC-7721 and in the test on MCF7 were 13.1 µM, 12.6 µM and 14.6 µM, respectively.
`C/C=C1/CN(C)[C@H]2Cc3c([nH]c4ccccc34)[C@H](c3cc4c5c([nH]c4cc3OC)[C@@]3(C(=O)OC)C[C@H]4C[C@H](CC)[C@H]3N(CC5)C4)C[C@H]1[C@]2(CO)C(=O)OC`: the results for the IC50 in the test on HepG2 [4], in the test on SMMC-7721 and in the test with MCF7 were 12.8 µM, 4.63 µM and 38 µM, respectively.

As usually defined, the IC50 is the concentration at which inhibition is half-maximal.
